How the values were obtained:
Test in all cases: relative viability vs DMSO control (72 h) (fraction); higher = more viable cells
SW872 = test system: SW872
How it was run: (§1)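 Sarcoma cell lines went into 384-well plates at densities chosen to reach 80–90% confluence. After 24 h, each well received 2.5 µl of serially diluted compound, with source plates running from 10 mM to 0.0002 mM, and the plates were kept 72 h at 37 °C, 5% CO2, alongside 0.1% DMSO vehicle and a 5 µM positive control. Relative viability was derived from ATPLite readings as percent growth and averaged over up to triplicate wells. The data were then rescaled so that 1 stands for full and 0 for none.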

KHOS-240S = test system: KHOS-240S
How it was run: as §1

SK-LMS-1 = test system: SK-LMS-1
How it was run: as §1

SW1353 = test system: SW1353
How it was run: as §1

RD-ES = test system: RD-ES
How it was run: as §1

HT1080 = test system: HT1080
How it was run: as §1

RD = test system: RD
How it was run: as §1

SYO-1 = test system: SYO-1
How it was run: as §1

G401 = test system: G401
How it was run: as §1

HS729 = test system: HS729
How it was run: as §1

SW684 = test system: SW684
How it was run: as §1

KHOS-NP = test system: KHOS-NP
How it was run: as §1

C=CC(=O)Nc1cc(Nc2nccc(-c3cn(C)c4ccccc34)n2)c(OC)cc1N(C)CCN(C)C [Osimertinib]
Settings | relative viability
G401, 0.00017 µM | 1.01
G401, 0.00051 µM | 1.02
G401, 0.00152 µM | 1.03
G401, 0.00457 µM | 1.03
G401, 0.01372 µM | 1.02
G401, 0.04115 µM | 0.976
G401, 0.1235 µM | 0.962
G401, 0.3704 µM | 0.87
G401, 1.111 µM | 0.816
G401, 3.333 µM | 0.711
G401, 10 µM | 0.0893
HS729, 0.00017 µM | 1.06
HS729, 0.00051 µM | 0.954
HS729, 0.00152 µM | 1.04
HS729, 0.00457 µM | 0.976
HS729, 0.01372 µM | 0.944
HS729, 0.04115 µM | 0.933
HS729, 0.1235 µM | 0.907
HS729, 0.3704 µM | 0.822
HS729, 1.111 µM | 0.78
HS729, 3.333 µM | 0.681
HS729, 10 µM | 0.533
HT1080, 0.00017 µM | 1.08
HT1080, 0.00051 µM | 1.09
HT1080, 0.00152 µM | 1.06
HT1080, 0.00457 µM | 1.06
HT1080, 0.01372 µM | 1.04
HT1080, 0.04115 µM | 1.06
HT1080, 0.1235 µM | 1.07
HT1080, 0.3704 µM | 1.03
HT1080, 1.111 µM | 0.992
HT1080, 3.333 µM | 0.935
HT1080, 10 µM | 0.0308
KHOS-240S, 0.00017 µM | 1.05
KHOS-240S, 0.00051 µM | 1.06
KHOS-240S, 0.00152 µM | 1.06
KHOS-240S, 0.00457 µM | 1.08
KHOS-240S, 0.01372 µM | 1.04
KHOS-240S, 0.04115 µM | 1.05
KHOS-240S, 0.1235 µM | 1.05
KHOS-240S, 0.3704 µM | 1.03
KHOS-240S, 1.111 µM | 0.926
KHOS-240S, 3.333 µM | 0.767
KHOS-240S, 10 µM | 0.167
KHOS-NP, 0.00017 µM | 1.1
KHOS-NP, 0.00051 µM | 1.11
KHOS-NP, 0.00152 µM | 1.084
KHOS-NP, 0.00457 µM | 1.08
KHOS-NP, 0.01372 µM | 1.07
KHOS-NP, 0.04115 µM | 1.06
KHOS-NP, 0.1235 µM | 1.06
KHOS-NP, 0.3704 µM | 1.05
KHOS-NP, 1.111 µM | 1.05
KHOS-NP, 3.333 µM | 1.02
KHOS-NP, 10 µM | 0.505
RD, 0.00017 µM | 1.08
RD, 0.00051 µM | 1.08
RD, 0.00152 µM | 1.11
RD, 0.00457 µM | 1.11
RD, 0.01372 µM | 1.11
RD, 0.04115 µM | 1.11
RD, 0.1235 µM | 1.1
RD, 0.3704 µM | 1.07
RD, 1.111 µM | 1.02
RD, 3.333 µM | 0.78
RD, 10 µM | 0.0148
RD-ES, 0.00017 µM | 0.962
RD-ES, 0.00051 µM | 0.978
RD-ES, 0.00152 µM | 0.977
RD-ES, 0.00457 µM | 0.971
RD-ES, 0.01372 µM | 0.979
RD-ES, 0.04115 µM | 0.964
RD-ES, 0.1235 µM | 0.947
RD-ES, 0.3704 µM | 0.892
RD-ES, 1.111 µM | 0.775
RD-ES, 3.333 µM | 0.598
RD-ES, 10 µM | 0.0212
SK-LMS-1, 0.00017 µM | 1.1
SK-LMS-1, 0.00051 µM | 1.1
SK-LMS-1, 0.00152 µM | 1.08
SK-LMS-1, 0.00457 µM | 1.07
SK-LMS-1, 0.01372 µM | 1.06
SK-LMS-1, 0.04115 µM | 1.03
SK-LMS-1, 0.1235 µM | 1.07
SK-LMS-1, 0.3704 µM | 1.02
SK-LMS-1, 1.111 µM | 0.972
SK-LMS-1, 3.333 µM | 0.776
SK-LMS-1, 10 µM | 0.032
SW684, 0.00017 µM | 1.11
SW684, 0.00051 µM | 1.18
SW684, 0.00152 µM | 1.21
SW684, 0.00457 µM | 1.2
SW684, 0.01372 µM | 1.16
SW684, 0.04115 µM | 1.13
SW684, 0.1235 µM | 1.13
SW684, 0.3704 µM | 1.12
SW684, 1.111 µM | 1.11
SW684, 3.333 µM | 0.984
SW684, 10 µM | 0.063
SW872, 0.00017 µM | 1.078
SW872, 0.00051 µM | 1.06
SW872, 0.00152 µM | 1.06
SW872, 0.00457 µM | 1.08
SW872, 0.01372 µM | 1.04
SW872, 0.04115 µM | 1.02
SW872, 0.1235 µM | 1.03
SW872, 0.3704 µM | 0.988
SW872, 1.111 µM | 0.894
SW872, 3.333 µM | 0.761
SW872, 10 µM | 0.384
SW1353, 0.00017 µM | 1.014
SW1353, 0.00051 µM | 1.007
SW1353, 0.00152 µM | 1.002
SW1353, 0.00457 µM | 1
SW1353, 0.01372 µM | 0.97
SW1353, 0.04115 µM | 0.96
SW1353, 0.1235 µM | 0.9
SW1353, 0.3704 µM | 0.82
SW1353, 1.111 µM | 0.8
SW1353, 3.333 µM | 0.742
SW1353, 10 µM | 0.0174
SYO-1, 0.00017 µM | 1.02
SYO-1, 0.00051 µM | 0.992
SYO-1, 0.00152 µM | 0.969
SYO-1, 0.00457 µM | 0.971
SYO-1, 0.01372 µM | 0.935
SYO-1, 0.04115 µM | 0.9
SYO-1, 0.1235 µM | 0.847
SYO-1, 0.3704 µM | 0.713
SYO-1, 1.111 µM | 0.576
SYO-1, 3.333 µM | 0.418
SYO-1, 10 µM | -0.0037

Reference: the supplement of paper PMC10883282
